This note sets out measurements from PMC9189845, “Structure–Activity Relationships of 8-Hydroxyquinoline-Derived Mannich Bases with Tertiary Amines Targeting Multidrug-Resistant Cancer” (Journal of Medicinal Chemistry, 2022).

Where two headings read alike, the source gives them in different places.

One assay relates to A431-B1 cells. As to the kind of experiment: PrestoBlue viability assay, A431-B1 (A431-ABCB1) cells.
In another assay the test system is A431 cells. As to the kind of experiment: PrestoBlue viability assay, A431 cells. As to conditions: Homo sapiens.
The next assay deals with MES-SA/Dx5 cells. The assay is described as follows: PrestoBlue viability assay, MES-SA/Dx5 cells (MDR, P-gp positive). Conditions: for IC50: Homo sapiens; for SR_TQ: selectivity ratio MES-SA vs MES-SA/Dx5, with TQ; for SR: selectivity ratio MES-SA vs MES-SA/Dx5, without TQ.
In the next assay the test system is MES-SA cells. The assay is described as follows: PrestoBlue viability assay, MES-SA cells. Conditions: Homo sapiens, MES-SA.
Where [1] appears, read: 72 h, read-out: IC50 / µM A431-B1, 72 h incubation.
The mark [2] stands for this setting: read-out: pIC50 A431-B1, SARM figure (converted).
Setting [3] is: A-431, 72 h, read-out: IC50 / µM A431, 72 h incubation.
The mark [4] stands for this setting: A-431, read-out: pIC50 A431, SARM figure (converted).
Setting [5] is: MES-SA/Dx5, 72 h, read-out: IC50 / μM MES-SA/Dx5, absence of TQ, 72 h incubation.
Setting [6] is: MES-SA/Dx5, read-out: IC50 / μM MES-SA/Dx5 (values in parentheses), presence of 1 μM P-gp inhibitor tariquidar (TQ).
[7] abbreviates: MES-SA/Dx5, read-out: pIC50 value MES-SA/Dx5 + TQ, MES-SA/Dx5 cells, with TQ (converted).
[8] abbreviates: MES-SA/Dx5, read-out: pIC50 value MES-SA/Dx5, MES-SA/Dx5 cells, without TQ (converted).
[9] abbreviates: 72 h, read-out: IC50 / μM MES-SA, absence of TQ, 72 h incubation.
Setting [10] is: read-out: IC50 / μM MES-SA (values in parentheses), presence of 1 μM P-gp inhibitor tariquidar (TQ).
The mark [11] stands for this setting: read-out: pIC50 value MES-SA+TQ, MES-SA cells, with TQ (converted).
Where [12] appears, read: read-out: pIC50 value MES-SA, MES-SA cells, without TQ (converted).

As for `CC1CCN(Cc2cc(COC(C)C)c3cccnc3c2O)CC1` [Compound 28], the IC50 with A431-B1 cells (setting [1]) was 1.72 ± 0.15 µM; in the assay on A431-B1 cells (setting [2]), 1.7 µM; with A431 cells (setting [3]), 7.24 ± 1.78 µM; in the assay with A431 cells (setting [4]), 7.08 µM; with MES-SA/Dx5 cells (setting [5]), 0.36 ± 0.04 µM; with MES-SA/Dx5 cells (setting [6]), 2.15 ± 0.22 µM. Moreover, the IC50 is 2.14 µM in the assay with MES-SA/Dx5 cells (setting [7]); 0.355 µM in the assay on MES-SA/Dx5 cells (setting [8]); 2.84 ± 0.35 µM with MES-SA cells (setting [9]); 3.02 ± 0.09 µM in the assay with MES-SA cells (setting [10]); 3.02 µM in the assay with MES-SA cells (setting [11]); 2.82 µM in the assay on MES-SA cells (setting [12]). The SR_TQ in the assay with MES-SA/Dx5 cells was determined as 1.41. Also, the SR in the assay with MES-SA/Dx5 cells was 7.96.

As for `Oc1c(CN2CCOCC2)cc(Br)c2cccnc12` [Compound 30], the IC50 with A431-B1 cells (setting [1]) was 2.89 ± 0.25 µM; with A431-B1 cells (setting [2]), 2.88 µM; with A431 cells (setting [3]), 9.3 ± 3.05 µM; with A431 cells (setting [4]), 8.91 µM; with MES-SA/Dx5 cells (setting [5]), 0.46 ± 0.04 µM; in the assay on MES-SA/Dx5 cells (setting [6]) it was 0.85 ± 0.06 µM. Moreover, the IC50 in the assay on MES-SA/Dx5 cells (setting [7]) was 0.851 µM; in the assay with MES-SA/Dx5 cells (setting [8]), 0.457 µM; with MES-SA cells (setting [9]), 1.13 ± 0.13 µM; with MES-SA cells (setting [10]), 1.32 ± 0.01 µM; in the assay with MES-SA cells (setting [11]), 1.32 µM; with MES-SA cells (setting [12]) it was 1.12 µM. Further, the SR_TQ in the assay with MES-SA/Dx5 cells is recorded as 1.54. In the assay on MES-SA/Dx5 cells, the SR was 2.46.

With `COCc1cc(CN2CCOCC2)c(O)c2ncccc12` [Compound 31], the IC50 in the assay with A431-B1 cells (setting [1]) is 12.1 ± 1.47 µM; in the assay with A431-B1 cells (setting [2]) it was 12 µM; in the assay with A431 cells (setting [3]), 34.4 ± 8.42 µM; with A431 cells (setting [4]), 33.1 µM; in the assay with MES-SA/Dx5 cells (setting [5]), 5.64 ± 0.45 µM; in the assay on MES-SA/Dx5 cells (setting [6]), 7.77 ± 0.31 µM. Further, the IC50 was 7.76 µM in the assay with MES-SA/Dx5 cells (setting [7]); 5.62 µM with MES-SA/Dx5 cells (setting [8]); 9.89 ± 1.52 µM with MES-SA cells (setting [9]); 8.97 ± 1.01 µM with MES-SA cells (setting [10]); 8.91 µM in the assay on MES-SA cells (setting [11]); 9.77 µM in the assay on MES-SA cells (setting [12]). Besides, the SR_TQ with MES-SA/Dx5 cells amounted to 1.15. The SR in the assay with MES-SA/Dx5 cells came to 1.75.

Regarding `CCOCc1cc(CN2CCOCC2)c(O)c2ncccc12` [Compound 32], the IC50 in the assay on A431-B1 cells (setting [1]) is 5.58 ± 0.58 µM; with A431-B1 cells (setting [2]) it was 5.5 µM; in the assay on A431 cells (setting [3]), 24.7 ± 10.9 µM; in the assay on A431 cells (setting [4]) it was 22.4 µM; with MES-SA/Dx5 cells (setting [5]), 3 ± 0.3 µM; with MES-SA/Dx5 cells (setting [8]), 2.95 µM. In addition, the IC50 is 5.85 ± 0.54 µM in the assay on MES-SA cells (setting [9]) and 5.75 µM in the assay on MES-SA cells (setting [12]). Also, the SR in the assay on MES-SA/Dx5 cells came out at 1.95.

As for `CC(C)OCc1cc(CN2CCOCC2)c(O)c2ncccc12` [Compound 33], the IC50 with A431-B1 cells (setting [1]) was 4.76 ± 0.23 µM; in the assay on A431-B1 cells (setting [2]), 4.79 µM; with A431 cells (setting [3]) it was 13.2 ± 6.23 µM; in the assay with A431 cells (setting [4]), 12 µM; in the assay on MES-SA/Dx5 cells (setting [5]), 1.74 ± 0.29 µM; with MES-SA/Dx5 cells (setting [8]), 1.7 µM. The IC50 in the assay on MES-SA cells (setting [9]) is 3.12 ± 0.6 µM; with MES-SA cells (setting [12]) it was 3.09 µM. Besides, the SR in the assay on MES-SA/Dx5 cells stood at 1.79.

With `COCc1cc(CN2CCN(C)CC2)c(O)c2ncccc12` [Compound 35], the IC50 is 26.49 ± 0.12 µM in the assay on A431-B1 cells (setting [1]); 26.3 µM in the assay with A431-B1 cells (setting [2]); 77.2 ± 11.6 µM with A431 cells (setting [3]); 75.9 µM with A431 cells (setting [4]); 8.82 ± 1.41 µM with MES-SA/Dx5 cells (setting [5]); 27.54 ± 0.13 µM in the assay on MES-SA/Dx5 cells (setting [6]). The IC50 was 8.71 µM with MES-SA/Dx5 cells (setting [8]); 24.8 ± 3.36 µM in the assay with MES-SA cells (setting [9]); 30.2 ± 0.64 µM in the assay with MES-SA cells (setting [10]); 30.2 µM with MES-SA cells (setting [11]); 24.5 µM in the assay with MES-SA cells (setting [12]). Also, the “SR (MES-SA_TQ / Dx5_TQ) (values in parentheses)” value with MES-SA/Dx5 cells (fraction of IC50 in P-gp negative vs positive cells, presence of 1 μM TQ) came out at 1.10. Further, the SR_TQ with MES-SA/Dx5 cells came out at 1.1. In addition, in the assay with MES-SA/Dx5 cells, the SR stood at 2.81.

As for `CCOCc1cc(CN2CCN(C)CC2)c(O)c2ncccc12` [Compound 36], the IC50 was 24.1 ± 10.1 µM in the assay on A431-B1 cells (setting [1]); 22.4 µM in the assay with A431-B1 cells (setting [2]); 66.6 ± 20.8 µM in the assay with A431 cells (setting [3]); 63.1 µM with A431 cells (setting [4]); 7.43 ± 0.46 µM in the assay with MES-SA/Dx5 cells (setting [5]); 17.1 ± 2.19 µM in the assay with MES-SA/Dx5 cells (setting [6]). In addition, the IC50 in the assay on MES-SA/Dx5 cells (setting [7]) is 17 µM; in the assay on MES-SA/Dx5 cells (setting [8]) it was 7.41 µM; with MES-SA cells (setting [9]), 23 ± 1.46 µM; with MES-SA cells (setting [10]) it was 22.9 ± 1.08 µM; with MES-SA cells (read-out: pIC50 MES-SA, absence of TQ (converted), SARM figure), 22.9 µM; in the assay on MES-SA cells (read-out: pIC50 MES-SA_TQ, presence of 1 μM TQ (converted), SARM figure), 22.9 µM. In addition, the IC50 in the assay on MES-SA cells (setting [11]) and with MES-SA cells (setting [12]) was 22.9 µM throughout. In addition, the SR_TQ with MES-SA/Dx5 cells is 1.34. The SR with MES-SA/Dx5 cells worked out at 3.09.
